Assay type in all cases: cell-based
Experiment [1] has as its target T1, ERα (Homo sapiens, UniProt P03372).
T1 construct: expressed in transfected cells; host or cells: HeLa
T1 sequence (P03372 1-595): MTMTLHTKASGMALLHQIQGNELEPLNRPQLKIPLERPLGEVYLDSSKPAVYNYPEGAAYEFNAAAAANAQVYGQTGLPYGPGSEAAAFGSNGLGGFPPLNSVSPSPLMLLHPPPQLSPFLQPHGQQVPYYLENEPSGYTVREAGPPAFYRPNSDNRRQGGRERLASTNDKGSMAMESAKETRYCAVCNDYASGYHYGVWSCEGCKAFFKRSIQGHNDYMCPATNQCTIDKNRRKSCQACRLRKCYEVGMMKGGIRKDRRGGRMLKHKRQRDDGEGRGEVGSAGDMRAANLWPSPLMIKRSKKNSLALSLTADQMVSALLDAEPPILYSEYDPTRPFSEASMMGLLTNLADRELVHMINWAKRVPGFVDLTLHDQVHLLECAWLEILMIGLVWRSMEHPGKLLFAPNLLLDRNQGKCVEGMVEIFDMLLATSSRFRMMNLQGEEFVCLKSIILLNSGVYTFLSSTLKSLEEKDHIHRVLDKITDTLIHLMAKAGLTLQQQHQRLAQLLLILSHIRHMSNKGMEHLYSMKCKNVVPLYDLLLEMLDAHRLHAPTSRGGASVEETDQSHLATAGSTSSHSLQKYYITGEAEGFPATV
The experiment is described as follows: Transient transfection luciferase assay with pSG5-ERa and ERE-SV40 reporter in HeLa cells, with 100 pM estradiol. To be noted: for IC50: HeLa cells, in the presence of 100 pM of estradiol, 24 h; for Antagonistic properties on ERa (in words): transient transfection.

Experiment [2] has as its target T2, human ERRα-1 (Homo sapiens, UniProt P11474).
T2 construct: expressed in transfected cells; host or cells: HeLa
T2 sequence (P11474 1-423): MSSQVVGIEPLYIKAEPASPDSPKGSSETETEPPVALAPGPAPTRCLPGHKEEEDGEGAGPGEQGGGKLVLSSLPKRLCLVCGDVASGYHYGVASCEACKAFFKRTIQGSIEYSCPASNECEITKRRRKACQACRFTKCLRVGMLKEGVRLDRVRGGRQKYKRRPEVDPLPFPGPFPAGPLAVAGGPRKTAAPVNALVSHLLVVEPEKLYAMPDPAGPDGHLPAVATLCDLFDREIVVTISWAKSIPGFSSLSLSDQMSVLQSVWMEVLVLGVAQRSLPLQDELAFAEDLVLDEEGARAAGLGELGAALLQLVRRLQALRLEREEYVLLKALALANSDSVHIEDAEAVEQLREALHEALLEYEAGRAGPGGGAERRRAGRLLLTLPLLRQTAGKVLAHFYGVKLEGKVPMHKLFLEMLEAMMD
The experiment is described as follows: Transient transfection luciferase assay, full length human ERRα with SF1-SV40-Luc reporter in HeLa cells. To be noted: for Antagonism of constitutive activity of ERRα (in words) / IC50: HeLa cells; for Antagonism of constitutive activity of ERRα (in words): SF1 binding site reporter, FIG. 1; for IC50: pSG5-ERRα, 24 h, mean ± SD. How it is done: HeLa cells were cultured in MEM Earle's salts medium supplemented with 5% charcoal/dextran-treated fetal bovine serum. Cells were then divided and cultured in 6-well plates until 80% confluence was achieved. The cells were next transfected with 4 μg Lipofectin. An equal amount of total DNA was used in all transfections by including appropriate amounts of the empty vector, pSG5, in addition to specific amounts of pSG5-ERRα and luciferase reporter plasmids (ERRE (ERRα recognizes an ERE half site)-containing reporter and aromatase promoter I.3-containing reporter). Following an overnight incubation, the medium containing Lipofectin and DNA was removed, and the cells cultured in a growth medium containing 5% charcoal/dextran-treated fetal bovine serum with or without ligands. After a 24-hour incubation, the cells was harvested from the plates by scraping, and the luciferase activities in the cell lysates (with the same amounts of protein) was measured according to the manufacturer's instructions (Promega). All experiments were performed in triplicate.
To evaluate the functional significance of the interaction of chalcones with ERRα, we incubated these compounds with HeLa cells which were transiently transfected with human ERRα expression plasmid and a luciferase reporter plasmid containing SF1 binding site. […] In order to confirm the results above, HeLa cells were transiently transfected with GAL4-human ERRα LBD fusion expression plasmid and a luciferase reporter plasmid containing GAL4 binding site. […] Most of the compounds, however, have similar IC50 value, and have a similar potency.
Referring to FIG. 1, HeLa cells were cotransfected with pSG5-ERRα (0.5 μg) and luciferase reporter plasmid containing SF1 binding site and SV40 promoter (0.25 μg). The transfected cells were incubated with Compound No. 1-9 for 24 h. After cells were washed with 1× PBS, luciferase activity was measured. Values represent the mean±SD.

The target of experiment [3] is T3, aromatase in MCF-7 aro cells (Homo sapiens, UniProt P11511).
T3 construct: expressed in transfected cells
T3 sequence (P11511 1-503): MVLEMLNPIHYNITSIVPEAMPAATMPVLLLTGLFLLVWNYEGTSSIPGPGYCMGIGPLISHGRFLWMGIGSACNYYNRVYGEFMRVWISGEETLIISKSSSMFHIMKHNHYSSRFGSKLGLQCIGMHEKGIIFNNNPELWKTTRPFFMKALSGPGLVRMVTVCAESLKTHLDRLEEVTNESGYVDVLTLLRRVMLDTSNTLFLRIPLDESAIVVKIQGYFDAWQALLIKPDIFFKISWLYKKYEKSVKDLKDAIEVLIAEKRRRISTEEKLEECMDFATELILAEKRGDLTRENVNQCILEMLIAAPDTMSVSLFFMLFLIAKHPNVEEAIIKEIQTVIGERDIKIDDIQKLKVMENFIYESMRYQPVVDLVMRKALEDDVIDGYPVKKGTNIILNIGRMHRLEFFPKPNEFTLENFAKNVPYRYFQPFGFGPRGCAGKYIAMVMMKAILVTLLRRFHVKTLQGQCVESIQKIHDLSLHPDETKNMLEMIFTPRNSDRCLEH
As to the kind of experiment: In-cell aromatase assay ([3H] H2O release) in MCF-7 aro cells. To be noted: 10 μM, 24 h, FIG. 6B. How it is done: To evaluate the effect of chalcones on aromatase activity, we performed both in vitro assay and in-cell assay with chalcones. […] In addition, MCF-7 aro cells, which are stable aromatase-expressing breast cancer cell line, were incubated with chalcones.
Referring to FIG. 6, the effect of Compound No. 1-9 on aromatase activity was investigated by both in vitro inhibition assay (A) and in-cell aromatase assay (B; MCF-7 aro cells, C; HepG2 cells, D; SK-BR-3 cells). Referring to FIG. 6A, aromatase inhibition study with Compound No. 1-9 was performed on a human placental microsomal aromatase preparation using the assay procedures described in (9). Referring to FIG. 6B, MCF-7 aro cells, which are stable aromatase-expressing cell line generated in our laboratory (10), were incubated with 10 μM of Compound No. 1-9. After 24 h incubation, aromatase activity was measured by [3H] H20 release method. HepG2 cells, as shown in FIG. 6C and SK-BR-3 cells as shown in FIG. 6D were also incubated with Compound No. 1-9 for 24 h, and aromatase activities were measured. Values represent the mean±SD.

“Also recorded” adds a separate entry of the source.

For `O=C(/C=C/c1ccccc1O)c1ccc(O)cc1O` [Compound No. 7-5, 2,2′,4′-Trihydroxychalcone], in experiment [1], the concentration for half-maximal inhibition (IC50) was 3.7 µM and the “Antagonistic properties on ERa (in words)” value was “showed antagonistic properties”. Moreover, in experiment [2], the “Rank of potency as antagonist of ERRα among the chalcones” value is on record as “more potent antagonist of ERRα among these seven chalcones”, the “Antagonism of constitutive activity of ERRα (in words)” value is listed as “antagonists of ERRα” and the 50% inhibitory concentration (IC50) was found to be 6.2 ± 1 µM.
In the case of `COc1cccc(/C=C/C(=O)c2ccc(O)cc2O)c1OC` [Compound No. 1-9, 2′,4′-Dihydroxy-2,3-dimethoxychalcone], in experiment [1], the half-inhibitory concentration (IC50) is 3.3 µM and the “Antagonistic properties on ERa (in words)” value is “showed antagonistic properties”. In experiment [2], the “Rank of potency as antagonist of ERRα among the chalcones” value is listed as “most potent antagonist among these chalcones; also recorded: more potent antagonist of ERRα among these seven chalcones”, the “Antagonism of constitutive activity of ERRα (in words)” value is “antagonists of ERRα” and the IC50 turned out to be 5.7 ± 1.8 µM. The “Effect on aromatase activity, in-cell assay, MCF-7 aro cells” value in experiment [3] was “did not inhibit aromatase activity”.

Usually IC50 stands for the concentration needed to halve the response being measured.

The record behind these values is US9763961B2, “Compositions that modulate the activity of estrogen receptors and estrogen-related receptors and methods for use” (CITY OF HOPE, priority 2005, dated 2017).
